# Data taken from patent publication US11274144B2, “Compositions and methods for the removal of biofilms” (priority 2013, dated 2022).
# B1: TRL1330: antibody, HC SEQ ID NO: 439, LC SEQ ID NO: 440 (antibody, V domains shown)
# VH: QVQLVESGTEVKNPGASVKVSCTASGYKFDEYGVSWVRQSPGQGLEWMGWISVYNGKTNYSQNFQGRLTLTTETSTDTAYMELTSLRPDDTAVYYCATDKNWFDPWGPGTLVTVSS
# VL: DIVLTQSPSASGSPGQSITISCTGTNTDYNYVSWYQHHPGKAPKVIIYDVKKRPSGVPSRFSGSRSGNTATLTVSGLQTEDEADYYCVSYADNNHYVFGSGTKVTVL
# B2: TRL1338: antibody, HC SEQ ID NO: 445, LC SEQ ID NO: 446 (antibody, V domains shown)
# VH: QVQLTLRESGPTLVKPTQTLTLTCTFSGFSLSTNGVGVGWIRQPPGKALEWLAIIYWDDDKRYSPSLKSRLTITKDTSKNQVVLTLTNMDPVDTGTYYCAHILGASNYWTGYLRYYFDYWGQGTLVTVST
# VL: DIEMTQSPSVSVSPGQTARITCSGEPLAKQYAYWYQQKSGQAPVVVIYKDTERPSGIPERFSGSSSGTTVTLTISGVQAEDEADYHCESGDSSGTYPVFGGGTKLTVL
# B3: TRL295: antibody, HC SEQ ID NO: 413, LC SEQ ID NO: 414 (antibody, V domains shown)
# VH: QVQLVESGGGLVQPGGSLRLSCAASGFPFSSYAMSWVRQAPGKGLEWVSAISGNGADSYYADSVKGRFTTSRDKSKNTVYLQMNRLRAEDTAVYYCAKDMRRYHYDSSGLHFWGQGTLVTVSS
# VL: DIELTQAPSVSVYPGQTARITCSGDALPKQYAYWYQQKPGQAPVVVIYKDSERPSGISERFSGSSSGTTVTLTISGVQAGDEADYYCQSVDTSVSYYVVFGGGTKLTVL
# Key:
# NTHI biofilms = assay: synergism on pre-formed NTHI biofilms (FIGS. 14A-14C); type: cell-based
# Description: To this end the ability to induce augmented structural destabilization of pre-formed NTHI biofilms was assessed when a sub-optimal concentration of anti-IHF was used along with one of each of three unique reagents.
# NTHI strain 86-028NP = system: NTHI strain 86-028NP
# Description: 48 adults were ordered from Rauscher's Chinchilla Ranch (LaRue, Ohio) and were acclimated to the vivarium for 7-10 days prior to the beginning of the study. Prior to TB [transbullar or direct challenge into the middle ear cavity] challenge, baseline otoscopy and tympanometry were performed as well as a limited volume prebleed to collect serum. Chinchillas were anesthetized and 300 μl of NTHI (strain #86-028NP) suspension containing approximately 1000 cfu were introduced into the middle ear space via transbullar challenge. Animals were allowed to recover, then monitored daily for adverse reactions as per IACUC accepted animal use protocols. Routine otoscopy and tympanometry were performed every 2-3 days throughout the study.
# Four days after challenge (day +4), chinchillas were anesthetized and a CT scan was performed to visualize biofilms present within the middle ear and to obtain pre-immunization images. The surface of the pinnae were cleaned and hydrated by wiping with a sterile gauze pad moistened with sterile pyrogen free saline. After ˜2 minutes (to allow the pinnae to dry), 50 μl of either the dmLT, IHF (purified E. coli IHF according to Experiment 1)+dmLT, or IHF+rsPiLA+dmLT solution will be added to the pinna and gently massaged in. Three chinchillas per cohort were sacrificed and tissues/samples collected (on days +4, and +11) to begin to determine mechanism of action.
# Eleven days after challenge (day +11), the secondary immunization occurred as described above wherein the pinnae are cleaned/hydrated and immunogens were topically administered. Three chinchillas per cohort were sacrificed and tissues/samples collected to begin to determine mechanism of action.
# Eighteen days after challenge (day +18), chinchillas were anesthetized and a CT scan were performed to identify any biofilms present, as well as to compare to the pre-immunization CT scans. The animals were then bled to collect serum and euthanized. […] Images were collected and the bulla were washed with 1 ml of sterile saline and re-imaged. The mucosa, along with any biofilm present, were collected from the right bulla and placed in a preweighed tube. These tissues were homogenized, serially diluted, and plated to determine cfu NTHI/mg wet weight tissue. The left bullae were filled with OCT compound and snap frozen for histological analysis.
# Images of the left and right middle ear cavities, with resident biofilms, were scrambled and two images per animal were compiled into a single file for ranking by blinded evaluators. The relative amount of biomass remaining within the middle ear of each animal was ranked on a 0 to 4+ scale by blinded reviewers using the scale shown in Table 6 below. Titer ELISAs, cytokine arrays, and Biacore were run on the serum as well as on the collected middle ear effusions. The OCT embedded middle ears were sectioned and stained either for basic morphology and architecture (H&E) or for the presence of IHF using immunohistochemistry and/or immunofluorescence.
# For the second animal immunization study, twenty adult chinchillas (body mass between 500-700 g), shown to have no evidence of middle ear disease by tympanometry and video otoscopy, were enrolled and divided into four cohorts of 5 animals each. All animals were again challenged transbullarly with approximately 1000 CFU NTHI strain 86-028NP per bulla. Four days later, after a biofilm formed in the middle ear cavities of these animals, they were immunized by a transcutaneous route (TCI) as described above. Formulations consisted of either: 10 μg IHF admixed with 10 μg dmLT, 10 μg IHF that had been pre-bound to DNA+dmLT, DNA+dmLT, or 10 μg dmLT alone.
# Middle ears were again subsequently scored from 0 to 4+ for disease severity upon completion of the study.
# IHF = target: T1, IHF (Escherichia coli, UniProt P0A6X7+P0A6Y1); assay: antibody response after subcutaneous immunization of chinchillas (Western blot, ELISA); type: in vivo, E. coli; conditions: chinchilla
# T1 construct: IHF promoter purified from E. coli K12 (the full length combination of both IHF subunits); made in house; host or cells: E. coli overproducing strains (lambda PL promoter plasmids, e.g. K5746 / E738)
# Text: Each animal received a priming dose followed by two identical boosts delivered at 30-day intervals.
# dsDNA = conditions: DNA (10 μM) to IHF (5 μM); FIG. 11
# Description: Middle ears were again subsequently scored from 0 to 4+ for disease severity upon completion of the study. To better assure that the IHF and DNA remained in complex for immunization, synthetic oligonucleotides identical to those used in the published co-crystallization study (see for e.g., Rice et al. (1996) Cell 87(7): 1295-1306) of a high affinity IHF binding site from the bacteriophage lambda recombination site attP at a molar ratio of 2:1 [DNA (10 μM) to IHF (5 μM)] was used.
# [1] = BIACORE epitope mapping with antiserum of chinchillas immunized with IHF pre-complexed to DNA; type: binding, chinchilla; conditions: BIACORE biosensor
# Text: (§1) To test this hypothesis, additional cohorts of chinchillas were immunized with either native full length IHF from E. coli (obtained from Nash) or with native full length IHF from E. coli (obtained from Nash) that had been complexed to an excess of double stranded DNA in order to best mimic how it would be presented in nature.
# [2] = BIACORE epitope mapping with antiserum of chinchillas immunized with native IHF; type: binding, chinchilla; conditions: BIACORE biosensor
# Text: as §1
# Staphylococcus aureus HU = Staphylococcus aureus HU (Staphylococcus aureus, UniProt Q5HFV0); conditions: cited from earlier work
# [3] = target: Haemophilus influenzae IHF (Haemophilus influenzae, UniProt P43723); conditions: also known as IhfA5; cited from earlier work
# [4] = amoxicillin 64 μg/ml, IHF antisera 1:50 dilution
# [5] = first study, transcutaneous immunization
# T1 sequence (P0A6X7 2-99): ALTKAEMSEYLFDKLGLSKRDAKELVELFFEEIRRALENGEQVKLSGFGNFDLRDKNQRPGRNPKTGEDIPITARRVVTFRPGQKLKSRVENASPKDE
# T1 sequence (P0A6Y1 whole entry): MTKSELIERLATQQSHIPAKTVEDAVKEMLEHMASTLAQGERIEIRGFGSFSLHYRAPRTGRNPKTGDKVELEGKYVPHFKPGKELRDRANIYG
molecule,measurement,setting,value
CC1(C)S[C@@H]2[C@H](NC(=O)[C@H](N)c3ccc(O)cc3)C(=O)N2[C@H]1C(=O)O [amoxicillin],"bacterial cell death in biofilm (vital dye, FIG. 14C)",NTHI biofilms; [4],limited bacterial cell death
same,effect on architecture/height of pre-formed NTHI biofilm (FIG. 14C),NTHI biofilms; [4],no measurable effect on the architecture
DNase,effect on pre-formed NTHI biofilm (FIG. 14A),"NTHI biofilms; DNase at sub-optimal concentration, anti-IHF 1:200 dilution",marginal effect
"E. coli IHF: purified E. coli integration host factor, full length combination of both subunits, used as immunogen with adjuvant",mean score for remaining biomass within the middle ears,"NTHI strain 86-028NP; first study, 2 weekly transcutaneous immunizations with dmLT adjuvant, day 18 after challenge, adjuvant only 2.8, 0 to 4+ scale",1.5
same,bacterial load within remaining biomass,"NTHI strain 86-028NP; first study, homogenized biomass cultured on chocolate agar, vs adjuvant alone, FIG. 10B",statistically significant reduction of bacterial load
same,immune response to immunization,NTHI strain 86-028NP; [5],strong local and systemic immune response
same,secondary sequelae of immunization noted upon necropsy,NTHI strain 86-028NP; [5],no animal presented with obvious secondary sequelae
same,resolution of experimental otitis media,NTHI strain 86-028NP; in vivo,eradicating experimental otitis media significantly earlier than controls
same,mean residual middle ear biomass score,"NTHI strain 86-028NP; second study, TCI, 10 μg with 10 μg dmLT, adjuvant alone 2.2, 0 to 4+ scale, FIG. 12",0.9
same,reciprocal titer versus isolated IHF by ELISA,"IHF; SQ immunization 10 μg with MPL, pre-immune reciprocal titers 100",8000
same,antibodies recognizing IHF by Western blot,"IHF; SQ immunization with MPL, FIG. 13",strong immune response to isolated IHF
same,binding of dsDNA (reduced mobility),dsDNA,bound dsDNA
"FLEEIRLSLESGQDVKLSGF (listed as Haemophilus influenzae) [A3, amino acids 31 to 50 of IHF]",immune recognition of 20-mer peptides,[1],greatest recognition
"RGFGSFSLHHRQPRLGRNPK (listed as Haemophilus influenzae) [B4, 46 to 65 of IHF]",immune recognition of 20-mer peptides,[2],greatest immune recognition
"RPGRNPKTGDVVPVSARRVV (listed as Haemophilus influenzae) [A5, amino acids 61 to 80 of IHF]",immune recognition of 20-mer peptides,[2],greatest immune recognition
B1,binding for fragment […],Staphylococcus aureus HU; SEQ ID NO: 455,high affinity binding
B2,binding for fragment VPAFKAGKALKDAVK,Staphylococcus aureus HU; SEQ ID NO: 456,high affinity binding
B3,epitope bound,[3],bind to residues 61-80
